Results: the kinase profiling compilation of Christmann-Franck et al. (2016)

Columns and labels:
Assay in all cases: radiometric filter-binding kinase assay, Kinaseprofiler
[1] = target: VRK2 (human) (UniProt Q86Y07); conditions: ATP 70 µM
[2] = target: IGF1R (human) (UniProt P08069); conditions: compound 1.0 µM
[3] = target: EPHA5 (human) (UniProt P54756); conditions: ATP 10 µM
[4] = system: SGK2 (human), Q9HBY8 [S416D]; conditions: ATP 15 µM
[5] = target: CDC42BPA (human) (UniProt Q5VT25); conditions: ATP 45 µM
[6] = target: CSNK2A1 CSNK2B CSNK2A2 (human) (UniProt P19784+P68400+P67870); conditions: ATP 15 µM
[7] = system: TAOK3 (human), Q9H2K8 [N47S]; conditions: ATP 15 µM
[8] = target: RPS6KA3 KD1 KD2 (human) (UniProt P51812); conditions: ATP 10 µM
[9] = target: ACVR1B (human) (UniProt P36896); conditions: ATP 10 µM
[10] = target: ALK (human) (UniProt Q9UM73); conditions: ATP 200 µM
[11] = target: TAOK2 (human) (UniProt Q9UL54); conditions: ATP 15 µM
[12] = target: PIM2 (human) (UniProt Q9P1W9); conditions: ATP 15 µM
[13] = target: FGR (human) (UniProt P09769); conditions: ATP 45 µM
[14] = target: RPS6KA2 KD1 KD2 (human) (UniProt Q15349); conditions: ATP 10 µM
[15] = target: CSK (human) (UniProt P41240); conditions: ATP 15 µM
[16] = target: NLK (human) (UniProt Q9UBE8); conditions: ATP 200 µM
[17] = target: TNK2 (human) (UniProt Q07912); conditions: ATP 70 µM
[18] = target: NUAK1 (human) (UniProt O60285); conditions: ATP 45 µM
[19] = target: PRKX (human) (UniProt P51817); conditions: ATP 200 µM
[20] = system: GSK3A (human), P49840 [S449A]; conditions: ATP 10 µM
[21] = target: EPHB4 (human) (UniProt P54760); conditions: ATP 10 µM
[22] = target: ULK2 (human) (UniProt Q8IYT8); conditions: ATP 15 µM
[23] = target: ROCK2 (human) (UniProt O75116); conditions: ATP 15 µM
[24] = target: CDK6 CCND3 (human) (UniProt P30281+Q00534); conditions: ATP 200 µM
[25] = target: PKN2 (human) (UniProt Q16513); conditions: ATP 15 µM
[26] = target: INSRR (human) (UniProt P14616); conditions: ATP 200 µM
[27] = target: SGK3 (human) (UniProt Q96BR1); conditions: ATP 155 µM
[28] = target: MAP2K1 (human) (UniProt Q02750); conditions: ATP 10 µM
[29] = target: CHUK (human) (UniProt O15111); conditions: ATP 10 µM
[30] = target: CHEK1 (human) (UniProt O14757); conditions: ATP 90 µM
[31] = target: SIK1 (human) (UniProt P57059); conditions: ATP 45 µM
[32] = target: MAP3K7 (human) (UniProt O43318); conditions: ATP 45 µM
[33] = target: PAK7 (human) (UniProt Q9P286); conditions: ATP 15 µM

IGF1R (human), sequence (P08069 whole entry, looked up): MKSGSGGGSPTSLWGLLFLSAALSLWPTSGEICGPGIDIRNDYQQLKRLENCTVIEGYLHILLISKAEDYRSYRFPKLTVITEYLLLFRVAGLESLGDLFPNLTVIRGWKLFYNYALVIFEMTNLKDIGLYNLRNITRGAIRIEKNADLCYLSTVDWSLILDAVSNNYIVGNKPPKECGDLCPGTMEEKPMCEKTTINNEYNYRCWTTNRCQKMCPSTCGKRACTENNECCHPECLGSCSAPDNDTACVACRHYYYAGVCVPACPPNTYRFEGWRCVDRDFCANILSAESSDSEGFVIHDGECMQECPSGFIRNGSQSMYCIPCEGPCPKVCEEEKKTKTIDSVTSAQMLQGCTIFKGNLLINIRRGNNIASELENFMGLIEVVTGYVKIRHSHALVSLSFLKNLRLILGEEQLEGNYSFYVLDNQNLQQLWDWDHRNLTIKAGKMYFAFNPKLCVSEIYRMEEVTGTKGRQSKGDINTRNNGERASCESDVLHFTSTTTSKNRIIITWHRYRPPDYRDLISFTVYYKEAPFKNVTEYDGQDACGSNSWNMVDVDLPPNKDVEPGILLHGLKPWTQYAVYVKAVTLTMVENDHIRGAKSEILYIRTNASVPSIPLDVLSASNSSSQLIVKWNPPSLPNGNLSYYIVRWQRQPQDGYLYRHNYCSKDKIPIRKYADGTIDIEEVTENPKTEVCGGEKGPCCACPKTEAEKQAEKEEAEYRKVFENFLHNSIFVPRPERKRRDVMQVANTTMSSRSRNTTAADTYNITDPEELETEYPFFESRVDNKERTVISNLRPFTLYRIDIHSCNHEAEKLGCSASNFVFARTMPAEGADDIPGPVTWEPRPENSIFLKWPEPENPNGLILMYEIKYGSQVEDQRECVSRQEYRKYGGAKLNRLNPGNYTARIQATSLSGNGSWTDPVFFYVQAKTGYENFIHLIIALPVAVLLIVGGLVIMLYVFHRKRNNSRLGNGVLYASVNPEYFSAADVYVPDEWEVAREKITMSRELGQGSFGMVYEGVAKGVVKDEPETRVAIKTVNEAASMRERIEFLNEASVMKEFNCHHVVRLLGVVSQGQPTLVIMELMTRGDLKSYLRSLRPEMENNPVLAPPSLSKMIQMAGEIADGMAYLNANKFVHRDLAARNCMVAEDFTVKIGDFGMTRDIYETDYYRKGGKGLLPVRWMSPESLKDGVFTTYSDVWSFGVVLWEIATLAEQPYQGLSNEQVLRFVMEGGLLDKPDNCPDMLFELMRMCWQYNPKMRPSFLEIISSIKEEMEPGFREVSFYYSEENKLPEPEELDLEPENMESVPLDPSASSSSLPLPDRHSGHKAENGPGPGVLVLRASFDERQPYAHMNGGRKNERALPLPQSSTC
VRK2 (human), sequence (Q86Y07 whole entry, looked up): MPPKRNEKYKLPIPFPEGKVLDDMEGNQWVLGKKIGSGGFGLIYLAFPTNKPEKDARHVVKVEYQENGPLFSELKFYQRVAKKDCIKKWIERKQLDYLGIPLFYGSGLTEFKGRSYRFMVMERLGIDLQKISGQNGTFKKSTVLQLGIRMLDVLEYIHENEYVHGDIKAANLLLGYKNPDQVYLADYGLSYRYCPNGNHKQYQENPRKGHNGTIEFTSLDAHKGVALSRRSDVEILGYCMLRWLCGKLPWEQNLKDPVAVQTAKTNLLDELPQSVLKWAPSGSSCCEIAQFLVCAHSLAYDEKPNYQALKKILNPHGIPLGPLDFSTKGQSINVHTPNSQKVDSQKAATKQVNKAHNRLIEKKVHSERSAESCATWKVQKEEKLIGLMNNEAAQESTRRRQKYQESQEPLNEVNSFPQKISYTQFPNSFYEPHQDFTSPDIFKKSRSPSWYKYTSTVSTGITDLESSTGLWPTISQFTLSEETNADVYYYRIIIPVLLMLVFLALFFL
EPHB4 (human), sequence (P54760 whole entry, looked up): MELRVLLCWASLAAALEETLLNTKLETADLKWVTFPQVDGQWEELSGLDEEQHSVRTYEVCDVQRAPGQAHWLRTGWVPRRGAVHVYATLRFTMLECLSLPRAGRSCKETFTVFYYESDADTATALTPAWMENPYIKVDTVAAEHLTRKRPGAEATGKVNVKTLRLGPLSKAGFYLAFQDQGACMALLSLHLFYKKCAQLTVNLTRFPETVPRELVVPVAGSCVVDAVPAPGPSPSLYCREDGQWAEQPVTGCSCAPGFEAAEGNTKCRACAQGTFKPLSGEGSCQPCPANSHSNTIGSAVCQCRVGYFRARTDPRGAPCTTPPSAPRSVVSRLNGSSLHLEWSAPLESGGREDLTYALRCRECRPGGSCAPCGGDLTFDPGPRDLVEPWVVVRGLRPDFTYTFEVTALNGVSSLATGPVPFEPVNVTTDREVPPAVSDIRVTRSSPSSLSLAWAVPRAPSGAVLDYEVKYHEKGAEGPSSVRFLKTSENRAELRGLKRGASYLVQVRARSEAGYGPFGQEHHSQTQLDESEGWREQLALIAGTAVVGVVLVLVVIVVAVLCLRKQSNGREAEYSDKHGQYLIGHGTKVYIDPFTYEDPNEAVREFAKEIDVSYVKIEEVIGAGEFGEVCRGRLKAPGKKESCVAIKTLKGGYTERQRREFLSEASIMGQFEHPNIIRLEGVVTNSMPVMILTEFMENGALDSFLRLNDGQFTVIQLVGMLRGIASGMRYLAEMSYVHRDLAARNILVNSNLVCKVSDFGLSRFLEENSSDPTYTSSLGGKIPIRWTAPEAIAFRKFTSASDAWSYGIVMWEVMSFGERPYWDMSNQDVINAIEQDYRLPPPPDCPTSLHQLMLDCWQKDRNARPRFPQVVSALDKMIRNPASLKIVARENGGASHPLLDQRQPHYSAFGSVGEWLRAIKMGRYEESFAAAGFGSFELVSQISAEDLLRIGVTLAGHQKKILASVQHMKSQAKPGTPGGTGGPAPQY
GSK3A (human), P49840 [S449A], sequence (P49840 whole entry, looked up, stated change not applied): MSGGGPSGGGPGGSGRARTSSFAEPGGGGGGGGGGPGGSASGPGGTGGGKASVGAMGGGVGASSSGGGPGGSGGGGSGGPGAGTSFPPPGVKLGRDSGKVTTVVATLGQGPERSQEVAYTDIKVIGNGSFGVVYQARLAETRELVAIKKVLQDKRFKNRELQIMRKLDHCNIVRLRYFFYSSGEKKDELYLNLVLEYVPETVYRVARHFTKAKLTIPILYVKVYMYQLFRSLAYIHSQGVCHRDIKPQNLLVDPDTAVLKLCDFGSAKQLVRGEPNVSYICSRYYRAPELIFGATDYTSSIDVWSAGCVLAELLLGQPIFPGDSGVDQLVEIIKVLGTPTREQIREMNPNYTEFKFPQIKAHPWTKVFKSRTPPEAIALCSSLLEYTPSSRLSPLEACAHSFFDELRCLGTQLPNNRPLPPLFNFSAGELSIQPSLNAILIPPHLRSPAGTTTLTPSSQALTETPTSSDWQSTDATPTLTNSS
TNK2 (human), sequence (Q07912 whole entry, looked up): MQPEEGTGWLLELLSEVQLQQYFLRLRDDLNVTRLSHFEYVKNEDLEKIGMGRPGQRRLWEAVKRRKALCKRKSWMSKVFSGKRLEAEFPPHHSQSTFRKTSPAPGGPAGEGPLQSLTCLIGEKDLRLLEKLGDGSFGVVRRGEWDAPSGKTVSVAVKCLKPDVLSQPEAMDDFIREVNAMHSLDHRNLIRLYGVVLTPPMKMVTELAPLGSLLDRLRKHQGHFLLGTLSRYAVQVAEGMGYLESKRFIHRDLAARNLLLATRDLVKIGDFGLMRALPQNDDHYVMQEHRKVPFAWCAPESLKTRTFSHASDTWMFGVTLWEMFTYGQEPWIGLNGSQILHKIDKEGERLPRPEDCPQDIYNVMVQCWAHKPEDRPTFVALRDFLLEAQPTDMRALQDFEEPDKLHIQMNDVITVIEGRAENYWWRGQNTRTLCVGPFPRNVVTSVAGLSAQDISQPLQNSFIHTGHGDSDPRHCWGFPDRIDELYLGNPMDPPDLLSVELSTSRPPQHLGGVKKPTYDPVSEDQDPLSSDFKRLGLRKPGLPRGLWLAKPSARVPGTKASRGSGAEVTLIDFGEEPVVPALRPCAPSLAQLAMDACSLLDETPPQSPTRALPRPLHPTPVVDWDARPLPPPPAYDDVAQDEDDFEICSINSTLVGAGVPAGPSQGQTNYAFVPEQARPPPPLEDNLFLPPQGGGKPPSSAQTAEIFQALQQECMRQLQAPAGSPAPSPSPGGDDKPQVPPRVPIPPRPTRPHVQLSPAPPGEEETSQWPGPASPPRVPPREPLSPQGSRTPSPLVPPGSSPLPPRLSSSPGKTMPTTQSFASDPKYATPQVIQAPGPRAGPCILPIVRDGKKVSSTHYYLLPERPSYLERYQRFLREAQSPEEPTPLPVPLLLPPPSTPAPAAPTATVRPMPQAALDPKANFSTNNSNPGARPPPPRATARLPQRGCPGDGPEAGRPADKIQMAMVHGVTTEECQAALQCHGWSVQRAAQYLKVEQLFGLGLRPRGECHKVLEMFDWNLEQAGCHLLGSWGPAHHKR
NUAK1 (human), sequence (O60285 whole entry, looked up): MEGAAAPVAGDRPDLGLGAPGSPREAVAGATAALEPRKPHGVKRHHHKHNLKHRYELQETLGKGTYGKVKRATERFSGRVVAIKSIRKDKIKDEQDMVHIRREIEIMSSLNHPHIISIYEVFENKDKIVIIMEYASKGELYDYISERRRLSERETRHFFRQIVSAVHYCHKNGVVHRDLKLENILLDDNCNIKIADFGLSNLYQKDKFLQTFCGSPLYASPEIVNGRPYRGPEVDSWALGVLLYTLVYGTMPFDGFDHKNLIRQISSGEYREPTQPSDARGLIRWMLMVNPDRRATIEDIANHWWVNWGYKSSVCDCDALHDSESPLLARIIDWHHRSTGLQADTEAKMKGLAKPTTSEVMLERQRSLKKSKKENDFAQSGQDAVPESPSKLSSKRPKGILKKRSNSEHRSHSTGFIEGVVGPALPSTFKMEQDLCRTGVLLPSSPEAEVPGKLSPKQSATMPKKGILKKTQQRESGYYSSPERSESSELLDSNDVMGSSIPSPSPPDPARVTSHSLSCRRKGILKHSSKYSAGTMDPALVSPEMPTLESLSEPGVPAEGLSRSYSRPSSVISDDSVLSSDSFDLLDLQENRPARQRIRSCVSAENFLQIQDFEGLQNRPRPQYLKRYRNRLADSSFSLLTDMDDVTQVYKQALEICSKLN

residual activity ([1]; compound 1.0 µM): 78% | residual activity ([1]; compound 10.0 µM): 36% | residual activity ([2]; ATP 45 µM): 92% | residual activity ([2]; ATP 200 µM): 91% | residual activity ([3]; compound 1.0 µM): 115% | residual activity ([3]; compound 10.0 µM): 63% | residual activity ([4]; compound 1.0 µM): 71% | residual activity ([4]; compound 10.0 µM): 33% | residual activity ([5]; compound 1.0 µM): 115% | residual activity ([5]; compound 10.0 µM): 116% | residual activity ([6]; compound 1.0 µM): 60% | residual activity ([6]; compound 10.0 µM): 19% | residual activity ([7]; compound 1.0 µM): 69% | residual activity ([7]; compound 10.0 µM): 27% | residual activity ([8]; compound 1.0 µM): 54% | residual activity ([8]; compound 10.0 µM): 32% | residual activity ([9]; compound 1.0 µM): 86% | residual activity ([9]; compound 10.0 µM): 84% | residual activity ([10]; compound 1.0 µM): 61% | residual activity ([10]; compound 10.0 µM): 29% | residual activity ([11]; compound 1.0 µM): 101% | residual activity ([11]; compound 10.0 µM): 69% | residual activity ([12]; compound 1.0 µM): 58% | residual activity ([12]; compound 10.0 µM): 21% | residual activity ([13]; compound 1.0 µM): 75% | residual activity ([13]; compound 10.0 µM): 38% | residual activity ([14]; compound 1.0 µM): 58% | residual activity ([14]; compound 10.0 µM): 22% | residual activity ([15]; compound 1.0 µM): 105% | residual activity ([15]; compound 10.0 µM): 93% | residual activity ([16]; compound 1.0 µM): 78% | residual activity ([16]; compound 10.0 µM): 71% | residual activity ([17]; compound 1.0 µM): 50% | residual activity ([17]; compound 10.0 µM): 12% | residual activity ([18]; compound 1.0 µM): 28% | residual activity ([18]; compound 10.0 µM): 17% | residual activity ([19]; compound 1.0 µM): 86% | residual activity ([19]; compound 10.0 µM): 70% | residual activity ([20]; compound 1.0 µM): 54% | residual activity ([20]; compound 10.0 µM): 40% | residual activity ([21]; compound 1.0 µM): 89% | residual activity ([21]; compound 10.0 µM): 55% | residual activity ([22]; compound 1.0 µM): 90% | residual activity ([22]; compound 10.0 µM): 45% | residual activity ([23]; compound 1.0 µM): 74% | residual activity ([23]; compound 10.0 µM): 39% | residual activity ([24]; compound 1.0 µM): 76% | residual activity ([24]; compound 10.0 µM): 31% | residual activity ([25]; compound 1.0 µM): 74% | residual activity ([25]; compound 10.0 µM): 32% | residual activity ([26]; compound 1.0 µM): 102% | residual activity ([26]; compound 10.0 µM): 51% | residual activity ([27]; compound 1.0 µM): 85% | residual activity ([27]; compound 10.0 µM): 58% | residual activity ([28]; compound 1.0 µM): 75% | residual activity ([28]; compound 10.0 µM): 50% | residual activity ([29]; compound 1.0 µM): 57% | residual activity ([29]; compound 10.0 µM): 21% | residual activity ([30]; compound 1.0 µM): 72% | residual activity ([30]; compound 10.0 µM): 32% | residual activity ([31]; compound 1.0 µM): 96% | residual activity ([31]; compound 10.0 µM): 48% | residual activity ([32]; compound 1.0 µM): 41% | residual activity ([32]; compound 10.0 µM): 19% | residual activity ([33]; compound 1.0 µM): 99% | residual activity ([33]; compound 10.0 µM): 64%
Structure (SMILES): O=C1c2ccccc2-c2n[nH]c3cccc1c23
